This is an account of results in patent US20120207722A1, “Use Of Adipose Tissue Cells For Initiating The Formation Of A Functional Vascular Network” (CENTRE NATIONAL DE LA RECHERCHE SCIENTIFIQUE, priority 2003, published 2012).

The assay concerns hind limb rendered ischemic. Briefly: Hind limb ischemia model, SVF-CULT cells with modified redox state (antimycin and/or PDTC). It is filed as in vivo, mouse. To be noted: daily i.p. injection (50 μl at 40 nM) after the injection of the SVF-CULT cells.

Method: The angiogenic potential of the SVF-CULT cells treated, in vitro, with antimycin (40 nM) and/or pyrrolidine dithiocarbamate (PDTC; 0.5 mM) two days before the injection, was analyzed in the model of the mouse with a hind limb rendered ischemic, as described in Example 1. Furthermore, after the injection of the SVF-CULT cells treated with antimycin alone, by adding antimycin to the culture medium, or not treated, the mice were or were not given a daily i.p. injection of antimycin (50 μl at 40 nM). The mice treated similarly with PDTC alone or in combination with antimycin receive no treatment after the injection of cells.
The angiogenic potential of the nontreated SVF-CULT cells, in mice not treated after the injection of the cells, was analyzed in parallel, by way of comparison. The control group was given an injection of ethanol, under the same conditions.
The neovascularization process was analyzed by microangiography and, optionally, by laser Doppler, 8 days after femoral occlusion. The statistical analysis was carried out by means of an ANOVA-type variance test for comparing each parameter (n=5 for each group). A Bonferroni t test subsequently made it possible to identify the groups causing these differences. A value of P<0.05 is considered to be significant.

antimycin: the “effect on revascularization when administered directly to the animal” value is “no effect”.
